Results on one compound are retold here after patent publication US5775329A, “Method and compounds for diagnosing coronary artery disease” (Gensia, Inc., priority 1995, dated 1998).

Molecules are shown by their SMILES.

Experiment [1] has as its system heart rate (chronotropic response). As to the kind of experiment: Pharmacodynamics in conscious dogs during i.v. administration (chronotropic response and offset). The experiment is classed as in vivo, dog. As to conditions: Example 13. The method, then:
[…] The T50 s were measured from end of infusion.
Pharmacodynamics in conscious dogs during i.v. administration
Dogs were trained to lie quietly on a table. Novel catecholamine compounds were administered via a venous catheter acutely placed in a leg vein. […] Heart rate was recorded by computer from ECG limb leads at 5 second intervals throughout the experiment. […]

The next experiment relates to heart rate. As to the kind of experiment: Pharmacodynamics in conscious dogs during transdermal iontophoretic administration. The following applies: iontophoresis 0.25 mA, 10 min; concentration (mM): isoproterenol 2.5, arbutamine 20, Ex 4 2, Ex 1 3, Ex 11 12, Ex 9 8, Ex 6 8. The experiment is classed as in vivo, dog. As for the experimental part:
Pharmacodynamics in conscious dogs during transdermal iontophoretic administration
Dogs were trained to lie quietly on a table. Heart rate was monitored by ECG limb leads. Novel catecholamines were administered from a gel-filled electrode placed on the surface of the skin. A second electrode was placed on the skin to complete the electrical circuit. All compounds were delivered using a current of 0.25 mA for a period of 10 minutes. Heart rate was monitored by the ECG, and the T50 of the compound was measured as the time after termination of current required for heart rate to return 50% toward baseline rate. A "delay" time was also measured as the time required for heart rate to begin to fall, following termination of current.

Another experiment addresses T1, β1-adrenoreceptor (Cavia porcellus, UniProt H0W3H1).
T1 construct: the hearts were excised and placed in ice-cold oxygenated Krebs Ringer buffer; tissue Charles River Laboratories (animals); host or cells: guinea pig atria (right and left, paired)
Nature of the experiment: In vitro bioassay for β1-adrenergic activity (atrial rate). The experiment is classed as biochemical. As to conditions: guinea pig atria, 37° C., pH=7.4, approximately four atrial preparations per compound. The method, then: (§1) In Vitro Bioassays for β1 -, β2 - and α-Adrenoreceptor Activity
(§2) Functional evaluation of β1 -, β2 - and α-adrenoreceptor activity was performed using in vitro preparations of guinea pig atria, guinea pig trachea, and rabbit aorta, respectively (Young, et. al, Drug Dev. Res. 1994, 32, 19-28).
For the atrial assay of β1 -adrenergic activity, male Hartley guinea pigs (350-500 g; Charles River Laboratories, Wilmington, Mass.) were sacrificed by decapitation and the hearts were excised and placed in ice-cold oxygenated Krebs Ringer buffer. The atria were separated from the ventricles, leaving the right and left atria attached as a pair. A suture was placed at the apex of each atrial appendage for securing the tissue within the organ bath. The water-jacketed 25-ml organ baths were maintained at 37° C. and filled with Krebs Ringer solution aerated with 95% O2 and 5% CO2. The atrial pairs were equilibrated for at least 20 min after application of 1 g resting tension. β1 -adrenergic activity was assessed using atrial rate (beats per min) and amplitude of contraction (g tension) which were monitored at 1 and 5 min after dosing. Concentration-response curves (10^-11 -10^-4 M) were obtained by cumulative addition of drug to the bath. Following the completion of the dose response curves, isoproterenol was added to assess maximal response of each atrial preparation. EC50 values were calculated from the rate results of approximately four atrial preparations per compound.
(§3) In all experiments, tension was measured by isometric force transducers (52-9529, Harvard Apparatus, Natick, Mass.) coupled to an ink-writing recorder (Gould, Cleveland Ohio). The Krebs Ringer solution contained the following ingredients (mM): NaCl (118.1), NaHCO3 (25.0), D-glucose (11.1), KH2 PO4 (1.2), KCl (4.8), MgSO4 (1.2), CaCl2 (2.5), pH=7.4.

In the next experiment the target is T2, β2-adrenoreceptor (Cavia porcellus, UniProt Q8K4Z4).
T2 construct: the trachea was gently excised and placed in ice-cold aerated Krebs Ringer solution; from tissue; host or cells: guinea pig tracheal rings
T2 sequence (Q8K4Z4 whole entry): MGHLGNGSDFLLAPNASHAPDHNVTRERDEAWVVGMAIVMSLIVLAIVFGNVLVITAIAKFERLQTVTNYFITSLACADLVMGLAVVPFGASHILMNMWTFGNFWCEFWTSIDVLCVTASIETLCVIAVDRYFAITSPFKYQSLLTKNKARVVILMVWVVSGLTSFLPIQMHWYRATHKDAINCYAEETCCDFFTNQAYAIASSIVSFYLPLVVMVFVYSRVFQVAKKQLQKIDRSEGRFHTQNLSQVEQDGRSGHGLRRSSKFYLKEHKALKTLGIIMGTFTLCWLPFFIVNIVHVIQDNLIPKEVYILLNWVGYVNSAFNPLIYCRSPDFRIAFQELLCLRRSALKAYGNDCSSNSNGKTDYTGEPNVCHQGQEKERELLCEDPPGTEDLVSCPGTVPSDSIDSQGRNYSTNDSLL
Nature of the experiment: In vitro bioassay for β2-adrenergic activity (relaxation of precontracted tracheal rings). The experiment is classed as biochemical. The following applies: guinea pig tracheal rings precontracted with carbachol, 37° C., pH=7.4, read-out: β2 (trachea). The method, then:
as §1, §2
For the tracheal assay of β2 -adrenergic activity, male Hartley guinea pigs (350-500 g) were sacrificed by carbon dioxide inhalation and the trachea was gently excised and placed in ice-cold aerated Krebs Ringer solution. β2 -adrenergic activity was assessed as the relaxation of rings following precontraction with carbachol. The trachea were cut into transverse rings containing two cartilage segments, and sutures were tied onto the cartilage on either side of the band of smooth muscle of each ring. The sutures were used to mount the individual rings in a 2.5-ml organ bath and to measure tension with an isometric force transducer. The water-jacketed organ baths maintained the preparation at 37° C. and were filled with Krebs Ringer solution aerated with 95% O2 and 5% CO2. The tracheal rings were equilibrated for 1 h following the application of 0.5 g resting tension. In some cases, equilibrated rings were then treated with the α2 -antagonist rauwolscine ([…]) and the β1 -antagonist atenolol ([…]) prior to precontraction with carbachol ([…]). Precontracted rings used as controls received treatments of saline only. Concentration-response curves were obtained by cumulative addition of drug to the organ bath, the concentration being increased only after the maximal relaxation to the preceding concentration was attained. After the final response was attained, isoproterenol ([…]) was added to assess maximal response for each preparation.
as §3

In a further experiment the target is α-adrenoreceptor. Nature of the experiment: In vitro bioassay for α-adrenergic activity (contraction of aortic rings). The experiment is classed as biochemical. As to conditions: rabbit aortic rings, propranolol pretreated, 37° C., pH=7.4, read-out: α (aorta). The method, then:
as §1, §2
For evaluation of α-adrenergic activity, male New Zealand white rabbits (2.5 kg) (Simunek Rabbitry, Vista, Calif.) were sacrificed by carbon dioxide inhalation and the thoracic aorta was quickly excised and placed in Krebs Ringer solution. The aorta was cut into 3-mm rings which were subsequently suspended on hooks in organ baths. The 2.5-ml water-jacketed baths were maintained at 37° C. and filled with Krebs Ringer solution aerated with 95% O2 and 5% CO2. The vascular rings were equilibrated for 1 h following the application of a resting tension of 4 g, during which time the buffer was changed at 15-min intervals. All rings were pretreated with propranolol ([…]) 10 min prior to addition of test compounds. Concentration-response curves were obtained by cumulative addition of compound to the organ bath, the concentration being increased only after maximal response to the preceding concentration was attained. After the final response was attained for each test drug, norepinephrine ([…]) was added to assess maximal contraction. Responses are expressed as a percent of the maximal contraction by norepinephrine.
as §3

T1 sequence (H0W3H1 1-470): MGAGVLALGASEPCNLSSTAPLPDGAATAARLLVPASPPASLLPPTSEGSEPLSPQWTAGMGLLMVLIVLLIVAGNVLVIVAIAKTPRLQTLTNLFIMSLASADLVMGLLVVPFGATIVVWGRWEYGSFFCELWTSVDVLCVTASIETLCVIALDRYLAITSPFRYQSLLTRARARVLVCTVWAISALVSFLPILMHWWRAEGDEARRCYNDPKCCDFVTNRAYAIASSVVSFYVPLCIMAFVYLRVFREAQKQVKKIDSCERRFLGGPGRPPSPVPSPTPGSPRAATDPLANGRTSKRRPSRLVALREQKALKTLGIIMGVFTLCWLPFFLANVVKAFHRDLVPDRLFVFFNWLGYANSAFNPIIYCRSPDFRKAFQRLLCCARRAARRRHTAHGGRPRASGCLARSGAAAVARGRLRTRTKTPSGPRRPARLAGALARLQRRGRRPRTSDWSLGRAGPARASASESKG

Turning to `COCCC(C)NC[C@H](O)c1ccc(O)c(O)c1` (stereo partly drawn) [Example 4, 1-(R)-(3,4-dihydroxyphenyl)-2-(1-methyl-3-methoxypropylamino)ethanol], the “Δ Heart Rate” value amounted to 98 ± 8 in experiment [1] (i.v. stepwise ascending doses up to 100 ng/kg/min) and 79 ± 8 beats/min with heart rate. The T50 in experiment [1] (i.v., from termination of infusion (100 ng/kg/min) to 50% fall in heart rate towards baseline) is given as 5.0 ± 0.7 min. Further, the “Delay (time required for heart rate to begin to fall following termination of current)” value in the experiment with heart rate was 0.3 ± 0.1 min. The “T50 (time after termination of current for heart rate to return 50% toward baseline)” value with heart rate turned out to be 9.1 ± 0.8 min. Further, the values for the EC50 on β1-adrenoreceptor, on β2-adrenoreceptor and on α-adrenoreceptor were 1.1 ± 0.2 nM, 9.9 ± 1.3 nM and over 100000 nM, respectively.
